# System: skin wounds reproducing ulceration
# Assay: cicatrization of punch skin wounds (pseudo-ulcer) treated daily with metformin ointment
# Format: in vivo, Zucker fa/fa rats
# Protocol: The efficacy of metformin was tested in vivo on skin wounds reproducing ulceration. The pseudo-ulcer was produced on 14-week-old Zucker fa/fa rats by loss of matter of circular shape 8 mm in diameter made by a “punch”, down to the muscle layer. […] The speed of the cicatrization was evaluated by determining the area of the wounds with a video camera coupled to a computer equipped with image analysis software.
# Furthermore, metformin at a concentration of 1% by weight relative to the lipophilic phase also appears to exert an effect on neovascularizaton.
# The results of the microscopic analysis of histological sections of the wounds are collated in Table 1 below.
smiles,measurement,setting,value
CN(C)C(=N)N=C(N)N [metformin],collagen density in granulation tissue,"FIG. 3, D4",increase in the collagen density
same,cicatrization (area of the wounds by image analysis),"daily treatment, ointment at different metformin concentrations",significant improvement in cicatrization
same,epidermization compared with untreated control animals,different metformin concentrations,acceleration of epidermization
same,closure of the treated wounds vs untreated control wounds,"four metformin concentrations, FIG. 2",closure of the treated wounds is faster than of the untreated control wounds
same,neovascularization (density of blood capillaries on the edges of the wound),"metformin 1%, D5, treated vs control rats",greater density of blood capillaries on the edges of the wound
same,"cicatrizing action, dose-response study","ointment with metformin at 0.02%, 0.1%, and 2%",cicatrizing action for all the concentrations tested
same,speed of maturation of granulation tissue,"rat, in vivo",significantly increases the speed of maturation of granulation tissue

# From US7199159B2, “Use of biguanide derivatives for making a medicine having a wound healing effect” (Centre National de la Recherche Scientifique (C.N.R.S.), priority 2000, dated 2007)
